Assay results taken from ChEMBL document CHEMBL1201862, “PubChem BioAssay data set” (2004).
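Values below derive from 48-hour exposures of cells grown in 96-well plates, with endpoints linearly interpolated between the two concentrations bracketing the appropriate inhibition level. GI50 marks 50% less growth.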 Active and inactive are the calls of the source. Rule as the data show it: active = GI50 up to about 1.1 µM and inactive = higher.

What was measured:
Assay in all cases: NCI tumour cell line growth inhibition, 48 h
[1] = system: UACC-257
[2] = system: K562
[3] = system: SNB-19
[4] = system: A498
[5] = system: EKVX
[6] = system: NCI/ADR-RES
[7] = system: SF-268
[8] = system: MOLT-4
[9] = system: A549
[10] = system: OVCAR-3
[11] = system: Malme-3M
[12] = system: SNB-75
[13] = system: LXFL 529
[14] = system: M14
[15] = system: KM12
[16] = system: NCI-H460
[17] = system: HOP-62
[18] = system: RPMI-8226
[19] = system: SN12C
[20] = system: HOP-92
[21] = system: MDA-MB-435
[22] = system: BT-549
[23] = system: HCC 2998
[24] = system: OVCAR-5
[25] = system: HOP-18
[26] = system: T47D
[27] = system: CAKI-1
[28] = system: PC-3
[29] = system: NCI-H522
[30] = system: U-251
[31] = system: KM-20L2
[32] = system: MCF7
[33] = system: UO-31
[34] = system: HCT-116
[35] = system: SF-539
[36] = system: HL-60
[37] = system: SR
[38] = system: SK-OV-3
[39] = system: HCT-15
[40] = system: MDA-MB-231
[41] = system: SK-MEL-28
[42] = system: UACC-62
[43] = system: SNB-78
[44] = system: SK-MEL-5
[45] = system: NCI-H226
[46] = system: HT-29
[47] = system: DLD-1
[48] = system: CCRF-CEM
[49] = system: OVCAR-8
[50] = system: ACHN
[51] = system: 786-0
[52] = system: RXF 393
[53] = system: M19-MEL
[54] = system: DMS-273
[55] = system: IGROV-1
[56] = system: SF-295
[57] = system: LOX IMVI
[58] = system: NCI-H23
[59] = system: SK-MEL-2
[60] = system: DU-145
[61] = system: SW-620
[62] = system: TK-10
[63] = system: COLO 205
[64] = system: DMS-114
[65] = system: Hs-578T
[66] = system: OVCAR-4

How did the GI50 [1] turn out when COc1cc2c(cc1OC)C(Cl)C(c1ccc(F)cc1)=C2Cl (configuration not stated) was run?
Its GI50 is 14.9 µM (inactive).

And the GI50 [2]?
The GI50 was 6.12 µM (inactive).

What about the GI50 [3] of the same compound?
The GI50 was 17.5 µM (inactive).

What about the GI50 [4] of the same compound?
Its GI50 is 14.9 µM (inactive).

And the GI50 [5]?
Its GI50 is 7.19 µM (inactive).

And the GI50 [6]?
Its GI50 is 13.6 µM (inactive).

What about the GI50 [7] of the same compound?
Its GI50 is 15.7 µM (inactive).

What about the GI50 [8] of the same compound?
Its GI50 is 5.41 µM (inactive).

What about the GI50 [9] of the same compound?
Its GI50 is 14.9 µM (inactive).

What about the GI50 [10] of the same compound?
The GI50 was 16.7 µM (inactive).

What about the GI50 [11] of the same compound?
Its GI50 is 13.2 µM (inactive).

And the GI50 [12]?
Its GI50 is 14.6 µM (inactive).

And the GI50 [13]?
The GI50 was 11.7 µM (inactive).

And the GI50 [14]?
The GI50 was 15.4 µM (inactive).

And the GI50 [15]?
The GI50 was 16.1 µM (inactive).

What about the GI50 [16] of the same compound?
The GI50 was 11.5 µM (inactive).

And the GI50 [17]?
Its GI50 is 16.5 µM (inactive).

What about the GI50 [18] of the same compound?
Its GI50 is 9.06 µM (inactive).

What about the GI50 [19] of the same compound?
The GI50 was 12.8 µM (inactive).

And the GI50 [20]?
The GI50 was 9.08 µM (inactive).

What about the GI50 [21] of the same compound?
The GI50 was 11.4 µM (inactive).

And the GI50 [22]?
The GI50 was 4.79 µM (inactive).

What about the GI50 [23] of the same compound?
The GI50 was 15.1 µM (inactive).

And the GI50 [24]?
The GI50 was 16.6 µM (inactive).

What about the GI50 [25] of the same compound?
Its GI50 is 15.2 µM (inactive).

And the GI50 [26]?
Its GI50 is 10 µM (inactive).

And the GI50 [27]?
Its GI50 is 13.8 µM (inactive).

What about the GI50 [28] of the same compound?
Its GI50 is 12.4 µM (inactive).

What about the GI50 [29] of the same compound?
The GI50 was 7.73 µM (inactive).

What about the GI50 [30] of the same compound?
Its GI50 is 13.1 µM (inactive).

What about the GI50 [31] of the same compound?
Its GI50 is 14.8 µM (inactive).

And the GI50 [32]?
The GI50 was 11.6 µM (inactive).

What about the GI50 [33] of the same compound?
Its GI50 is 13.5 µM (inactive).

What about the GI50 [34] of the same compound?
The GI50 was 12.9 µM (inactive).

And the GI50 [35]?
Its GI50 is 16.3 µM (inactive).

And the GI50 [36]?
Its GI50 is 5.68 µM (inactive).

And the GI50 [37]?
Its GI50 is 3.01 µM (inactive).

What about the GI50 [38] of the same compound?
The GI50 was 20.1 µM (inactive).

What about the GI50 [39] of the same compound?
Its GI50 is 12.9 µM.

What about the GI50 [40] of the same compound?
Its GI50 is 13.8 µM (inactive).

And the GI50 [41]?
The GI50 was 17.3 µM (inactive).

What about the GI50 [42] of the same compound?
The GI50 was 12.9 µM (inactive).

What about the GI50 [43] of the same compound?
Its GI50 is 15.4 µM (inactive).

What about the GI50 [44] of the same compound?
Its GI50 is 14.1 µM (inactive).

And the GI50 [45]?
The GI50 was 22.7 µM (inactive).

And the GI50 [46]?
Its GI50 is 15.9 µM (inactive).

And the GI50 [47]?
Its GI50 is 16.9 µM (inactive).

And the GI50 [48]?
Its GI50 is 5.77 µM (inactive).

What about the GI50 [49] of the same compound?
Its GI50 is 14.7 µM (inactive).

What about the GI50 [50] of the same compound?
Its GI50 is 13.2 µM (inactive).

What about the GI50 [51] of the same compound?
Its GI50 is 11.7 µM (inactive).

What about the GI50 [52] of the same compound?
Its GI50 is 15.4 µM (inactive).

What about the GI50 [53] of the same compound?
The GI50 was 16.8 µM (inactive).

What about the GI50 [54] of the same compound?
The GI50 was 16.4 µM (inactive).

And the GI50 [55]?
The GI50 was 17.4 µM (inactive).

What about the GI50 [56] of the same compound?
Its GI50 is 14.4 µM (inactive).

And the GI50 [57]?
The GI50 was 11.6 µM (inactive).

What about the GI50 [58] of the same compound?
The GI50 was 11.8 µM (inactive).

And the GI50 [59]?
The GI50 was 12.8 µM (inactive).

What about the GI50 [60] of the same compound?
The GI50 was 14.9 µM (inactive).

And the GI50 [61]?
The GI50 was 12.3 µM (inactive).

And the GI50 [62]?
The GI50 was 13.6 µM (inactive).

And the GI50 [63]?
The GI50 was 16.6 µM (inactive).

And the GI50 [64]?
Its GI50 is 13.2 µM (inactive).

What about the GI50 [65] of the same compound?
Its GI50 is 11.7 µM (inactive).

Which results are given for C/C(=C(/C)c1cc[n+](C)cc1)c1cc[n+](C)cc1?
GI50 [1]: > 75 µM (inactive); GI50 [2]: 54.8 µM (inactive); GI50 [3]: > 75 µM (inactive); GI50 [4]: > 75 µM (inactive); GI50 [5]: > 75 µM (inactive); GI50 [7]: > 75 µM (inactive); GI50 [8]: > 75 µM (inactive); GI50 [9]: > 75 µM (inactive); GI50 [10]: 9.12 µM (inactive); GI50 [11]: > 75 µM (inactive); GI50 [12]: > 75 µM (inactive); GI50 [13]: 69.8 µM (inactive); GI50 [14]: > 75 µM (inactive); GI50 [15]: > 75 µM (inactive); GI50 [16]: > 75 µM (inactive); GI50 [17]: > 75 µM (inactive); GI50 [18]: 28 µM (inactive); GI50 [19]: > 75 µM (inactive); GI50 [20]: > 75 µM (inactive); GI50 [24]: > 75 µM (inactive); GI50 [25]: > 75 µM (inactive); GI50 [27]: > 75 µM (inactive); GI50 [29]: 18.8 µM (inactive); GI50 [30]: > 75 µM (inactive); GI50 [31]: > 75 µM (inactive); GI50 [33]: > 75 µM (inactive); GI50 [34]: > 75 µM (inactive); GI50 [35]: > 75 µM (inactive); GI50 [36]: > 75 µM (inactive); GI50 [38]: > 75 µM (inactive); GI50 [66]: 69.8 µM (inactive); GI50 [39]: 52.7 µM; GI50 [41]: > 75 µM (inactive); GI50 [42]: > 75 µM (inactive); GI50 [43]: > 75 µM (inactive); GI50 [44]: > 75 µM (inactive); GI50 [46]: > 75 µM (inactive); GI50 [47]: 39.9 µM (inactive); GI50 [48]: > 75 µM (inactive); GI50 [49]: > 75 µM (inactive); GI50 [50]: > 75 µM (inactive); GI50 [51]: > 75 µM (inactive); GI50 [52]: > 75 µM (inactive); GI50 [54]: 36.1 µM (inactive); GI50 [55]: 34.4 µM (inactive); GI50 [56]: > 75 µM (inactive); GI50 [57]: 43.6 µM (inactive); GI50 [58]: > 75 µM (inactive); GI50 [59]: > 75 µM (inactive); GI50 [62]: > 75 µM (inactive); GI50 [63]: 27.2 µM (inactive); GI50 [64]: 16.2 µM (inactive)
